Experiments:
PK-59 cell line = test: In vitro cell proliferation experiment (5 days), PK-59; format: cell-based; settings: PK-59, 5 days; read-out: Inhibitory Activity IC50
Procedure: (§1) RPMI 1640 medium, DMEM, Ham's F12 medium, F12K medium, IMDM and penicillin/streptomycin antibiotics were purchased from Gibco, fetal bovine serum was purchased from Hyclone, Envision multilabel plate reader (PerkinElmer). […]
(§2) The test compound was diluted by 5-fold to 8 concentrations with a pipette, i.e., from 2 mM to 25.6 nM, and replicate wells were set up for the experiment. […] Another cell plate was prepared, and the signal value was read as the maximum value (the maximum value in the following equation) on the day of dosing for data analysis.
(§3) 50 μL of cell viability chemiluminescent detection reagent was added to the cell plate and incubated at room temperature for 30 minutes to stabilize the luminescence signal. A multilabel plate reader was used for reading. […]

NCI—H441 cells = test: In vitro cell proliferation experiment (5 days), H441; format: cell-based; settings: H441, 5 days; read-out: Inhibitory Activity IC50
Procedure: as §1, §2, §3

[1] = system: human pancreatic cancer PK59 cells; test: In vivo pharmacodynamic study, PK59 subcutaneous xenograft tumor model in BALB/c nude mice; settings: gavage once daily
Procedure: To study the in vivo efficacy of a compound of the present disclosure in BALB/c nude mice subcutaneous xenograft tumor model of human pancreatic cancer PK59 cells.
Laboratory animals: Female BALB/c nude mice, 6-8 weeks old, weighing 18-22 g; supplier. Beijing Vital River Laboratory Animal Technology Co., Ltd.
(1) Cell culture. Human pancreatic cancer PK59 cells were cultured in vitro in a monolayer, and the culture conditions were 10% fetal bovine serum added to Gibco RMPI1640 medium, incubated at 37° C. in a 5% CO2 incubator. Routine passage was performed twice a week with trypsin-EDTA for digestion. When the cell saturation was 80%-90% and the required number was reached, the cells were collected, counted, and inoculated.
(2) Tumour cell inoculation and grouping: 0.2 mL (2×10^6) of PK59 cells (Matrigel was added in a volume ratio of 1:1) was subcutaneously inoculated into the right back of each mouse, and dosing was started when the mean tumor volume reached about 104.4 mm^3, with 6 animals in each group.
The vehicle was 5% DMSO/10% solutol/85% water. Control group: The vehicle was administered via gavage once daily at a dose of 10 μL/g; treatment group: After dissolving the test compound in the vehicle, the compound was administered by gavage once daily.
(3) The tumor diameter was measured with a vernier caliper twice weekly, and the tumor volume (V) was calculated. The formula is: V=0.5a×b^2, where a and b are the long and short diameters of the tumor, respectively. The tumor inhibitory efficacy of the test compound was evaluated by the tumor growth inhibition rate (TGI). The calculation formula is: TGI %=[1−(Mean tumor volume at the end of dosing in a treatment group−Mean tumor volume at the start of dosing in this treatment group)/(Mean tumor volume at the end of treatment in the vehicle control group−Mean tumor volume at the start of treatment in the vehicle control group)×100%.

For `CCn1c(-c2cc(N3CCN(C)CC3)cnc2C(C)OC)c2c3cc(ccc31)-c1csc(n1)CC(NC(=O)C1C(C)C1C)C(=O)N1NC(C(=O)OCC(C)(C)C2)C2CC1C2` (single isomer, unassigned) [Compound 6A], the IC50 (PK-59 cell line) was 2.3 nM, the IC50 (NCI—H441 cells) was 1.4 nM and the “Tumour Volume (mm^3) Day 1” value ([1]; 0.5 mpk) was 103.6 mm^3. For the same molecule, the “Tumour Volume (mm^3) Day 7” value ([1]; 0.5 mpk) was 111.0 mm^3, the “Tumour Volume (mm^3) Day 14” value ([1]; 0.5 mpk) was 112.4 mm^3 and the “TGI (%) Day 22” value ([1]; 0.5 mpk) was 101%. The “Tumour Volume (mm^3) Day 22” value ([1]; 0.5 mpk) was 96.4 mm^3, the “Tumour Volume (mm^3) Day 1” value ([1]; 2 mpk) was 103.5 mm^3 and the “Tumour Volume (mm^3) Day 7” value ([1]; 2 mpk) was 64.3 mm^3. The “Tumour Volume (mm^3) Day 14” value ([1]; 2 mpk) was 45.5 mm^3, the “TGI (%) Day 22” value ([1]; 2 mpk) was 107% and the “Tumour Volume (mm^3) Day 22” value ([1]; 2 mpk) was 43.3 mm^3. The “Tumour Volume (mm^3) Day 1” value ([1]; 5 mpk) was 103.8 mm^3, the “Tumour Volume (mm^3) Day 7” value ([1]; 5 mpk) was 65.0 mm^3 and the “Tumour Volume (mm^3) Day 14” value ([1]; 5 mpk) was 35.7 mm^3. The “TGI (%) Day 22” value ([1]; 5 mpk) was 108% and the “Tumour Volume (mm^3) Day 22” value ([1]; 5 mpk) was 34.3 mm^3.

— US12458647B2, “Macrocyclic derivative and use thereof” (Guangzhou Joyo Pharmatech Co., Ltd., priority 2022, dated 2025)
